Literature values as cited in patent US20070135395A1, “Novel method for the preparation of intermediates useful for the synthesis fo vitamin d analogues” (Leo Pharma A/S, priority 2004, published 2007).

Tested on: epidermal keratinocytes
Conditions: cited: Castelijins et al., Acta Derm. Venereol. 79, 11, 1999

C=C1/C(=C\C=C2/CCC[C@]3(C)[C@@H]([C@H](C)/C=C/[C@@H](O)C4CC4)CC[C@@H]23)C[C@@H](O)C[C@@H]1O [Calcipotriol, (5Z, 7E, 22E, 24S)-24-cyclopropyl-9,10-secochola-5,7,10(19),22-tetraene-1α-3β-24-triol]
activity in inhibiting undesirable proliferation of epidermal keratinocytes: strong activity
